{"source": "patent US20240041991A1", "about": "“STABLE LIQUID DISPERSINB COMPOSITIONS” (KANE BIOTECH INC., priority 2020, published 2024)", "test_system": "DispersinB", "format": "biochemical, Aggregatibacter actinomycetemcomitans", "conditions": "for % enzymatic activity of DispersinB (Mean): polyol % as in label; for temperature stabilizing effect on DispersinB at elevated temperatures: 42° C., 52° C., and 62° C.", "experimental": "Samples from each formula was incubated at 3 different temperatures (42° C., 52° C. and 62° C.) for 3 hours. Following a 3 hour incubation, the samples were brought to room temperature for enzymatic activity assay.\nTwo-tailed paired T-test was performed by to compare each polyol containing treatment with the treatment devoid of polyol. Treatment with probability values (p) less than 5% (0.05) was considered significant.", "note": "Like-named read-outs stand apart in the source and are kept apart here. Marks after values point to notes of the source that are not given here.", "data": [{"smiles": "O[C@H]1[C@H](O)[C@@H](O)[C@H](O)[C@@H](O)[C@H]1O", "note": "[inositol, Inositol]", "values": [{"measurement": "% enzymatic activity of DispersinB (Mean)", "setting": "4° C., freshly made control without polyol = 100%, listed as 0.25% Inositol", "result": 104, "unit": "%"}, {"measurement": "% enzymatic activity of DispersinB (Mean)", "setting": "4° C., freshly made control without polyol = 100%, listed as 0.5% Inositol", "result": 101, "unit": "%"}, {"measurement": "% enzymatic activity of DispersinB (Mean)", "setting": "4° C., freshly made control without polyol = 100%, listed as 1% Inositol", "result": 101, "unit": "%"}, {"measurement": "% enzymatic activity of DispersinB (Mean)", "setting": "4° C., freshly made control without polyol = 100%, listed as 2% Inositol", "result": 102, "unit": "%"}, {"measurement": "% enzymatic activity of DispersinB (Mean)", "setting": "4° C., freshly made control without polyol = 100%, listed as 4% Inositol", "result": "107* %"}, {"measurement": "% enzymatic activity of DispersinB (Mean)", "setting": "4° C., freshly made control without polyol = 100%, listed as 6% Inositol", "result": "112* %"}, {"measurement": "% enzymatic activity of DispersinB (Mean)", "setting": "4° C., freshly made control without polyol = 100%, listed as 8% Inositol", "result": "118* %"}, {"measurement": "% enzymatic activity of DispersinB (Mean)", "setting": "4° C., freshly made control without polyol = 100%, listed as 10% Inositol", "result": "115* %"}, {"measurement": "% enzymatic activity of DispersinB (Mean)", "setting": "4° C., freshly made control without polyol = 100%, listed as 12% Inositol", "result": "118* %"}, {"measurement": "% enzymatic activity of DispersinB (Mean)", "setting": "4° C., freshly made control without polyol = 100%, listed as 14% Inositol", "result": "124* %"}, {"measurement": "% enzymatic activity of DispersinB (Mean)", "setting": "42° C. for 3 hours, control without polyol = 100%, listed as 0.25% Inositol", "result": "96* %"}, {"measurement": "% enzymatic activity of DispersinB (Mean)", "setting": "42° C. for 3 hours, control without polyol = 100%, listed as 0.5% Inositol", "result": "97* %"}, {"measurement": "% enzymatic activity of DispersinB (Mean)", "setting": "42° C. for 3 hours, control without polyol = 100%, listed as 1% Inositol", "result": "99* %"}, {"measurement": "% enzymatic activity of DispersinB (Mean)", "setting": "42° C. for 3 hours, control without polyol = 100%, listed as 2% Inositol", "result": "101* %"}, {"measurement": "% enzymatic activity of DispersinB (Mean)", "setting": "42° C. for 3 hours, control without polyol = 100%, listed as 4% Inositol", "result": "106* %"}, {"measurement": "% enzymatic activity of DispersinB (Mean)", "setting": "42° C. for 3 hours, control without polyol = 100%, listed as 6% Inositol", "result": "112* %"}, {"measurement": "% enzymatic activity of DispersinB (Mean)", "setting": "42° C. for 3 hours, control without polyol = 100%, listed as 8% Inositol", "result": "126* %"}, {"measurement": "% enzymatic activity of DispersinB (Mean)", "setting": "42° C. for 3 hours, control without polyol = 100%, listed as 10% Inositol", "result": "113* %"}, {"measurement": "% enzymatic activity of DispersinB (Mean)", "setting": "42° C. for 3 hours, control without polyol = 100%, listed as 12% Inositol", "result": "118* %"}, {"measurement": "% enzymatic activity of DispersinB (Mean)", "setting": "42° C. for 3 hours, control without polyol = 100%, listed as 14% Inositol", "result": 115, "unit": "%"}, {"measurement": "temperature stabilizing effect on DispersinB at elevated temperatures", "result": "exhibited temperature stabilizing effect"}, {"measurement": "% enzymatic activity of DispersinB (Mean)", "setting": "52° C. for 3 hours, control without polyol = 100%, listed as 0.5% Inositol", "result": "1* %"}, {"measurement": "% enzymatic activity of DispersinB (Mean)", "setting": "52° C. for 3 hours, control without polyol = 100%, listed as 1% Inositol", "result": "3* %"}, {"measurement": "% enzymatic activity of DispersinB (Mean)", "setting": "52° C. for 3 hours, control without polyol = 100%, listed as 2% Inositol", "result": "8* %"}, {"measurement": "% enzymatic activity of DispersinB (Mean)", "setting": "52° C. for 3 hours, control without polyol = 100%, listed as 4% Inositol", "result": "19* %"}, {"measurement": "% enzymatic activity of DispersinB (Mean)", "setting": "52° C. for 3 hours, control without polyol = 100%, listed as 6% Inositol", "result": "37* %"}, {"measurement": "% enzymatic activity of DispersinB (Mean)", "setting": "52° C. for 3 hours, control without polyol = 100%, listed as 8% Inositol", "result": "66* %"}, {"measurement": "% enzymatic activity of DispersinB (Mean)", "setting": "52° C. for 3 hours, control without polyol = 100%, listed as 10% Inositol", "result": "77* %"}, {"measurement": "% enzymatic activity of DispersinB (Mean)", "setting": "52° C. for 3 hours, control without polyol = 100%, listed as 12% Inositol", "result": "86* %"}, {"measurement": "% enzymatic activity of DispersinB (Mean)", "setting": "52° C. for 3 hours, control without polyol = 100%, listed as 14% Inositol", "result": "92* %"}]}, {"smiles": "OC[C@@H](O)[C@@H](O)[C@H](O)[C@@H](O)CO", "note": "[sorbitol, (2S,3R,4R,5R)-Hexane-1,2,3,4,5,6-hexol]", "values": [{"measurement": "% enzymatic activity of DispersinB (Mean)", "setting": "4° C., freshly made control without polyol = 100%, listed as Sorbitol 1%", "result": "112* %"}, {"measurement": "% enzymatic activity of DispersinB (Mean)", "setting": "4° C., freshly made control without polyol = 100%, listed as Sorbitol 2.5%", "result": "107* %"}, {"measurement": "% enzymatic activity of DispersinB (Mean)", "setting": "4° C., freshly made control without polyol = 100%, listed as Sorbitol 5%", "result": "105* %"}, {"measurement": "% enzymatic activity of DispersinB (Mean)", "setting": "4° C., freshly made control without polyol = 100%, listed as Sorbitol 10%", "result": "107* %"}, {"measurement": "% enzymatic activity of DispersinB (Mean)", "setting": "4° C., freshly made control without polyol = 100%, listed as Sorbitol 20%", "result": "110* %"}, {"measurement": "% enzymatic activity of DispersinB (Mean)", "setting": "4° C., freshly made control without polyol = 100%, listed as Sorbitol 30%", "result": "113* %"}, {"measurement": "% enzymatic activity of DispersinB (Mean)", "setting": "42° C. for 3 hours, control without polyol = 100%, listed as Sorbitol 1%", "result": 80, "unit": "%"}, {"measurement": "% enzymatic activity of DispersinB (Mean)", "setting": "42° C. for 3 hours, control without polyol = 100%, listed as Sorbitol 2.5%", "result": 87, "unit": "%"}, {"measurement": "% enzymatic activity of DispersinB (Mean)", "setting": "42° C. for 3 hours, control without polyol = 100%, listed as Sorbitol 5%", "result": "89* %"}, {"measurement": "% enzymatic activity of DispersinB (Mean)", "setting": "42° C. for 3 hours, control without polyol = 100%, listed as Sorbitol 10%", "result": "88* %"}, {"measurement": "% enzymatic activity of DispersinB (Mean)", "setting": "42° C. for 3 hours, control without polyol = 100%, listed as Sorbitol 20%", "result": "88* %"}, {"measurement": "% enzymatic activity of DispersinB (Mean)", "setting": "42° C. for 3 hours, control without polyol = 100%, listed as Sorbitol 30%", "result": "101* %"}, {"measurement": "temperature stabilizing effect on DispersinB at elevated temperatures", "result": "exhibited temperature stabilizing effect"}, {"measurement": "% enzymatic activity of DispersinB (Mean)", "setting": "52° C. for 3 hours, control without polyol = 100%, listed as Sorbitol 1%", "result": "6* %"}, {"measurement": "% enzymatic activity of DispersinB (Mean)", "setting": "52° C. for 3 hours, control without polyol = 100%, listed as Sorbitol 2.5%", "result": "21* %"}, {"measurement": "% enzymatic activity of DispersinB (Mean)", "setting": "52° C. for 3 hours, control without polyol = 100%, listed as Sorbitol 5%", "result": "46* %"}, {"measurement": "% enzymatic activity of DispersinB (Mean)", "setting": "52° C. for 3 hours, control without polyol = 100%, listed as Sorbitol 10%", "result": "82* %"}, {"measurement": "% enzymatic activity of DispersinB (Mean)", "setting": "52° C. for 3 hours, control without polyol = 100%, listed as Sorbitol 20%", "result": "94* %"}, {"measurement": "% enzymatic activity of DispersinB (Mean)", "setting": "52° C. for 3 hours, control without polyol = 100%, listed as Sorbitol 30%", "result": "97* %"}, {"measurement": "% enzymatic activity of DispersinB (Mean)", "setting": "62° C. for 3 hours, control without polyol = 100%, listed as Sorbitol 5%", "result": "1* %"}, {"measurement": "% enzymatic activity of DispersinB (Mean)", "setting": "62° C. for 3 hours, control without polyol = 100%, listed as Sorbitol 10%", "result": "3* %"}, {"measurement": "% enzymatic activity of DispersinB (Mean)", "setting": "62° C. for 3 hours, control without polyol = 100%, listed as Sorbitol 20%", "result": "4* %"}, {"measurement": "% enzymatic activity of DispersinB (Mean)", "setting": "62° C. for 3 hours, control without polyol = 100%, listed as Sorbitol 30%", "result": "46* %"}]}]}
